From ChEMBL document CHEMBL1136245, “HIV-1 protease inhibitors with picomolar potency against PI-resistant HIV-1 by modification of the P1' substituent” (Bioorg Med Chem Lett, 2003)
Values after ≈ are worked out from the molar mass of the structure shown.

Experiments:
[1] = biological target: T1, Human immunodeficiency virus type 1 protease (Human immunodeficiency virus 1, UniProt Q72874); experiment: Inhibitory activity of compound against HIV-1 protease in HIV-1 (K-60C) strain
[2] = Cmax of compound after both po and iv administration at a dose of 5 mg/kg and 2 mg/kg resp in dog; format: ADME, organism-based, Canis lupus familiaris; conditions: in vivo
[3] = biological target: T1, Human immunodeficiency virus type 1 protease; experiment: Inhibitory activity of compound against HIV-1 protease in HIV-1 (Q-60C) strain
[4] = tested on: MT4; experiment: Antiviral activity of compound against spread of wild type V-18C virus infection in MT-4 human T-lymphoid cells; format: functional; conditions: read-out: CIC95
[5] = biological target: Cytochrome P450 3A4 (Homo sapiens, UniProt P08684); experiment: Inhibition of human liver microsome Cytochrome P450 3A4; format: ADME, microsomes
[6] = biological target: T2, Cytochrome P450 2C9 (Homo sapiens, UniProt P11712); experiment: Inhibition of huamn liver microsome Cytochrome P450 2C9; format: ADME, microsomes
[7] = biological target: T1, Human immunodeficiency virus type 1 protease; experiment: Inhibitory activity of compound against HIV-1 protease in wild type NL4-3 virus
[8] = Area under curve of compound after both po and iv administration at a dose of 5 mg/kg and 2 mg/kg resp in dog; format: ADME, organism-based, Canis lupus familiaris; conditions: in vivo
[9] = Clearance of compound after both po and iv administration at a dose of 5 mg/kg and 2 mg/kg resp in dog; format: ADME, organism-based, Canis lupus familiaris; conditions: in vivo
[10] = Oral bioavailability in dog (dose 5 mg/kg p.o. and 2 mg/kg i.v.); format: ADME, organism-based, Canis lupus familiaris; conditions: in vivo
[11] = biological target: T1, Human immunodeficiency virus type 1 protease; experiment: Inhibitory activity of compound against HIV-1 protease in HIV-1 (V-18C) strain
[12] = tested on: MT4; experiment: Antiviral activity of compound against spread of wild type Q-60C virus infection in MT-4 human T-lymphoid cells; format: functional; conditions: read-out: CIC95
[13] = biological target: T3, Cytochrome P450 2D6 (Homo sapiens, UniProt P10635); experiment: (§1) Inhibition of human liver microsome Cytochrome P450 2D6; format: ADME, microsomes
[14] = Half life of compound after both po and iv administration at a dose of 5 mg/kg and 2 mg/kg resp in dog; format: ADME, organism-based, Canis lupus familiaris; conditions: in vivo
[15] = tested on: MT4; experiment: Antiviral activity of compound against spread of wild type K-60C virus infection in MT-4 human T-lymphoid cells; format: functional; conditions: read-out: CIC95
[16] = tested on: MT4; experiment: Antiviral activity of compound against spread of wild type NL4-3 virus infection in MT-4 human T-lymphoid cells; format: functional; conditions: read-out: CIC95
[17] = Solubility of compound at pH 5.2; format: physicochemical; conditions: buffer
[18] = biological target: T3, Cytochrome P450 2D6; experiment: as §1; format: ADME
[19] = biological target: T2, Cytochrome P450 2C9; experiment: Inhibition of human liver microsome Cytochrome P450 2C9; format: ADME, microsomes

T2 sequence (P11712 whole entry): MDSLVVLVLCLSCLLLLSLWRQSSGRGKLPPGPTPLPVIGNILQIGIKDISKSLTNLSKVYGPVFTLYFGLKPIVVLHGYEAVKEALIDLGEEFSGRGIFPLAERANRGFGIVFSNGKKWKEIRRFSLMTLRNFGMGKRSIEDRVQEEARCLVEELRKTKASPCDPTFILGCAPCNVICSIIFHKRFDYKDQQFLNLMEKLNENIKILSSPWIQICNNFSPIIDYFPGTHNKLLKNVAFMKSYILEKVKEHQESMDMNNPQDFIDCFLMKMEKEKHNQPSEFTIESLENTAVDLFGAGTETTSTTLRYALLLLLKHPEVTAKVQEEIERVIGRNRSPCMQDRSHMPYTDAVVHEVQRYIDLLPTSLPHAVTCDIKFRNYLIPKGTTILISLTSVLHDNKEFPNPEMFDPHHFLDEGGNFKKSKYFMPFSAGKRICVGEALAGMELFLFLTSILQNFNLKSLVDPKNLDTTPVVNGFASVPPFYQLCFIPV
Chain of Cytochrome P450 3A4 (P08684 whole entry): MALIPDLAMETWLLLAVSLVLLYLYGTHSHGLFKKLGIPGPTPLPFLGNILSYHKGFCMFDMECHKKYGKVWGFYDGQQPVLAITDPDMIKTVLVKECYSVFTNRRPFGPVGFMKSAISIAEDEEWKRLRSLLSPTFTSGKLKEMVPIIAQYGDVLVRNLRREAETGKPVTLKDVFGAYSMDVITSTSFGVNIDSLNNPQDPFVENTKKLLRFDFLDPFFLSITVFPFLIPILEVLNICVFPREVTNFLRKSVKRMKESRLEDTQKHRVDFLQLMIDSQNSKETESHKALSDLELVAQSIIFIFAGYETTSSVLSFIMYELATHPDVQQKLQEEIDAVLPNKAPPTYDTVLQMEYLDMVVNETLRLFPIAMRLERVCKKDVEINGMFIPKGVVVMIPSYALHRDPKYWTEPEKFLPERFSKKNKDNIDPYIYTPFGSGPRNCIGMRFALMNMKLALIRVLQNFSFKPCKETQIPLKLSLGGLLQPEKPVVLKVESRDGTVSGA
T3 sequence (P10635 whole entry): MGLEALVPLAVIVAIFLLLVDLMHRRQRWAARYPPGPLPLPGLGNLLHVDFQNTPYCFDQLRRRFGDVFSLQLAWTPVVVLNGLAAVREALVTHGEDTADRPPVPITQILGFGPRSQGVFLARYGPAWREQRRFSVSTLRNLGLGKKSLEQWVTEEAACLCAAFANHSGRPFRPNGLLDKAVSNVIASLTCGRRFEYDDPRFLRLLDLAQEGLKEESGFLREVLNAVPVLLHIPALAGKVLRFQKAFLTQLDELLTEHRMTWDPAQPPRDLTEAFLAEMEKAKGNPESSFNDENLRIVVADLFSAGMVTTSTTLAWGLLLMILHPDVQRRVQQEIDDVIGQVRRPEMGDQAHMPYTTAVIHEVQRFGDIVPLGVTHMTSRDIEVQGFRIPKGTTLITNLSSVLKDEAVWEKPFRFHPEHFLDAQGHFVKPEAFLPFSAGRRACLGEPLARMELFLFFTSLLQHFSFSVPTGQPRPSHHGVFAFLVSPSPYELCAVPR

SMILES | IC50 [1] | Cmax [2] | IC50 [3] | IC95 [4] | IC50 [5] | IC50 [6] | IC50 [7] | AUC [8] | clearance [9] | bioavailability [10] | IC50 [11] | IC95 [12] | IC50 [13] | half-life [14] | IC95 [15] | IC95 [16] | solubility [17] | IC50 [18] | IC50 [19]
O=C(N[C@H]1c2ccccc2OC[C@H]1O)[C@H](Cc1cccnc1)C[C@H](O)CN1CCN(Cc2ccc(-c3ccccc3)o2)C[C@H]1C(=O)NCC(F)(F)F | 0.06 nM | 110 nM | 0.07 nM | ≤ 8 nM | 430 nM | 83900 nM | 0.02 nM | 0.08 µM·h | 20.5 mL/min/kg | 1% | 0.15 nM | ≤ 8 nM | 15600 nM | 1.23 h | ≤ 8 nM | ≤ 8 nM | 10 µg/mL (≈ 13.9 µM) | – | –
O=C(N[C@H]1c2ccccc2OC[C@H]1O)[C@H](Cc1ccncc1)C[C@H](O)CN1CCN(Cc2cc3cccc(Cl)c3o2)C[C@H]1C(=O)NCC(F)(F)F | 0.92 nM | – | – | ≤ 8 nM | – | – | 0.03 nM | – | – | – | 0.14 nM | 125 nM | – | – | 62 nM | ≤ 8 nM | < 10 µg/mL | – | –
O=C(N[C@H]1c2ccccc2OC[C@H]1O)[C@H](Cc1cccnc1)C[C@H](O)CN1CCN(Cc2cc3ccccc3o2)C[C@H]1C(=O)NCC(F)(F)F | 3.7 nM | 3360 nM | 2.7 nM | 31 nM | 480 nM | 48800 nM | 0.04 nM | 1.94 µM·h | 15 mL/min/kg | 24% | 1.3 nM | 125 nM | 19000 nM | 0.867 h | 125 nM | 15 nM | 310 µg/mL (≈ 446 µM) | – | –
O=C(N[C@H]1c2ccccc2OC[C@H]1O)[C@H](Cc1ccncc1)C[C@H](O)CN1CCN(Cc2cc3ccccc3o2)C[C@H]1C(=O)NCC(F)(F)F | 10 nM | 380 nM | – | – | 2200 nM | – | 0.1 nM | 0.22 µM·h | 22.5 mL/min/kg | 4% | 2.2 nM | 250 nM | 3600 nM | 1.7 h | – | 15 nM | 280 µg/mL (≈ 402 µM) | – | –
O=C(N[C@H]1c2ccccc2OC[C@H]1O)[C@H](Cc1ccncc1)C[C@H](O)CN1CCN(Cc2ccc(-c3ccccc3)o2)C[C@H]1C(=O)NCC(F)(F)F | 0.11 nM | 210 nM | 0.2 nM | 31 nM | 1500 nM | – | 0.04 nM | 0.16 µM·h | 17.4 mL/min/kg | 2% | 0.34 nM | 31 nM | 14900 nM | 1.07 h | ≤ 8 nM | 15 nM | 40 µg/mL (≈ 55.4 µM) | – | –
O=C(N[C@H]1c2ccccc2OC[C@H]1O)[C@H](Cc1ccccc1)C[C@H](O)CN1CCN(Cc2ccc(-c3ccncc3)o2)C[C@H]1C(=O)NCC(F)(F)F | 0.6 nM | – | 0.8 nM | 31 nM | – | – | – | 2.58 µM·h | 24.5 mL/min/kg | – | 1.3 nM | 31 nM | – | 1 h | 15 nM | ≤ 8 nM | 670 µg/mL (≈ 928 µM) | – | –
O=C(N[C@H]1c2ccccc2OC[C@H]1O)[C@H](Cc1cccnc1)C[C@H](O)CN1CCN(Cc2cc3cccc(Cl)c3o2)C[C@H]1C(=O)NCC(F)(F)F | – | – | – | ≤ 8 nM | 500 nM | – | 0.02 nM | – | – | – | 0.12 nM | 31 nM | – | – | 31 nM | 10 nM | 10 µg/mL (≈ 13.7 µM) | 8800 nM | 27300 nM
CC(C)(C)NC(=O)[C@@H]1CN(Cc2cccnc2)CCN1C[C@@H](O)C[C@@H](Cc1ccccc1)C(=O)N[C@H]1c2ccccc2C[C@H]1O | – | – | – | > 1000 nM | – | – | – | – | – | – | – | > 1000 nM | – | – | > 1000 nM | 50 nM | – | – | –
